In publication PMC11466185, “Mechanisms and efficacy of small molecule latency-promoting agents to inhibit HIV reactivation ex vivo” (JCI Insight, 2024):
Several values for one entry are separate records, joined by “and”; a condition that tells them apart may be missing. Equal entries are not always repeated. Where two headings read alike, the source gives them in different places.

How the values were obtained:
[1] = system: HIV transcripts (TAR, LLTR, Pol, PolyA, TatRev); assay: Cell-associated HIV transcripts (RT-ddPCR) 6 days after anti-CD3/CD28 activation of PBMCs from ART-suppressed PWH; type: cell-based; settings: for LLTR/TAR / PolyA/LLTR / TatRev/PolyA: DMSO+CD3/28 = 1, Fig 4B, C and D; for Pol / PolyA / TAR / TatRev: DMSO αCD3/28 = 100, Fig 4A
Method in brief: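 HIV transcripts (TAR, LLTR, Pol, PolyA, TatRev) in total RNA were quantified 6 days after bead activation (anti-CD3/CD28, IL-2 20 U/mL) of patient PBMCs treated with drug in DMSO under antiretroviral cover. Values were normalised to 1 μg RNA relative to activated DMSO controls, with stage-to-stage ratios; at least 6 donors, Wilcoxon signed-rank test.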

PBMCs = type: cell-based, human; settings: 6 days after αCD3/28 activation, each row one participant
Description: Next, we evaluated the ability of the candidate LPAs to sustain the inhibitory effects during a prolonged ex vivo culture. To this end, PBMCs were cultured in the presence of individual drugs in DMSO or in DMSO alone as control, activated (anti-CD3/CD28), and harvested after 6 days. […] However, we decided to test the drug on day 6 because extra cells were available from some study participants.
For quantification of cell-associated HIV transcripts, PBMCs were harvested either after 24 hours or after 6 days. The cell viabilities were measured by trypan blue staining; then the cells were pelleted by centrifuging at 300g for 6 minutes and stored at –80°C. For quantification of virion-associated HIV RNA, cell culture supernatant was collected from 6 × 10^6 PBMCs that were treated and activated for 6 days as described above. Residual cells and cellular debris were subsequently removed from the supernatant by differential centrifugation (300g for 6 minutes, then 20,000g for 10 minutes), and the supernatant was stored at –80°C.
A) After six days, the viability was measured by trypan blue staining and then normalized to the levels of the activated DMSO (% of activated DMSO). Bars indicate medians and different colors indicate individual study participants. B-F) Each drug was tested in PBMCs from at least six ART-suppressed study participants (except for KRIBB11, n=5) and the PBMCs were aliquoted into wells at 6x10^6 cells/well. After activation, the cells were cultured with antiretrovirals in the presence of individual drugs in DMSO or DMSO alone as control. After six days, total RNA was extracted and the progression through different stages of HIV transcription was (1 picture or pasted object on this page, not shown here)

[2] = system: HIV transcripts (PolyA, TatRev); assay: Dose-response curves of LPAs: polyadenylated and multiply spliced HIV transcripts 24 hours after activation; type: cell-based; settings: for IC50: 24 h, PBMCs from 1 participant per drug; for MS Tat-Rev (dose-response) / PolyA (dose-response): 24 hours, 1 participant per drug
Description: The IC50 was determined based on the reduction in completed (PolyA) as well as multiply spliced (TatRev) HIV transcripts relative to activated DMSO (Table 1).
Figure 2 Dose-response curves of LPAs. Dose-response curves for each drug were generated in PBMCs from 1 ART-suppressed study participant per drug. PBMCs were aliquoted into wells at 6 × 10^6 cells/well, activated, and cultured with antiretrovirals in the presence of DMSO alone (no drug) or varying concentrations of individual drugs in DMSO. After 24 hours, the levels of polyadenylated and multiply spliced HIV transcripts were quantified by RT-ddPCR, normalized to 1 μg of total cellular RNA, and expressed as a percentage of the activated DMSO control (% of activated DMSO).

[3] = Human immunodeficiency virus 1, PBMC, reduction in PolyA HIV transcripts relative to activated DMSO, read-out: Completed (PolyA) IC50
[4] = Human immunodeficiency virus 1, PBMC, reduction in TatRev HIV transcripts relative to activated DMSO, read-out: Multiply spliced (TatRev) IC50

Molecule: CC(=O)N[C@@H]1CCC[C@H](C(=O)Nc2cc(-c3cnn4c3CC(C)(C)C4)c(Cl)cn2)C1 [AZD4573]
- LLTR/TAR ([1]; participant 2027): 0.3501
- PolyA/LLTR ([1]; participant 2027): 0.2124
- TatRev/PolyA ([1]; participant 2027): 0
- LLTR/TAR ([1]; participant 2147a): 0.6972
- PolyA/LLTR ([1]; participant 2147a): 0.4073
- TatRev/PolyA ([1]; participant 2147a): 0.2876
- LLTR/TAR ([1]; participant 2161): 0.7137
- PolyA/LLTR ([1]; participant 2161): 1.39
- TatRev/PolyA ([1]; participant 2161): 0
- LLTR/TAR ([1]; participant 2461): 1.973
- PolyA/LLTR ([1]; participant 2461): 0.4151
- PolyA/LLTR ([1]; participant 2747): 0.4425
- LLTR/TAR ([1]; participant 2750): 0.6631
- PolyA/LLTR ([1]; participant 2750): 1.188
- TatRev/PolyA ([1]; participant 2750): 0.2617
- Cell viability (DMSO αCD3/28 = 100) (PBMCs; 8nM): 123.6 and 120.68 and 105.88 and 140.1 and 117.5 and 116.7 and 104.1
- IC50 [2, 3]: 0.28 nM
- IC50 [2, 4]: 0.23 nM
- MS Tat-Rev (dose-response) ([2]; dose 1 nM): 18.92 % of activated DMSO
- PolyA (dose-response) ([2]; dose 1 nM): 20.96 % of activated DMSO
- MS Tat-Rev (dose-response) ([2]; dose 8 nM): 1.11 % of activated DMSO
- PolyA (dose-response) ([2]; dose 8 nM): 5.23 % of activated DMSO
- MS Tat-Rev (dose-response) ([2]; dose 20 nM): 0.18 % of activated DMSO
- PolyA (dose-response) ([2]; dose 20 nM): 4.94 % of activated DMSO

Molecule: O=c1c(O)c(-c2ccc(O)c(O)c2)oc2cc(O)cc(O)c12 [quercetin]
- LLTR/TAR ([1]; participant 150b): 0.7842
- PolyA/LLTR ([1]; participant 150b): 1.289
- TatRev/PolyA ([1]; participant 150b): 0.75
- LLTR/TAR ([1]; participant 2027): 0.9301
- PolyA/LLTR ([1]; participant 2027): 0.981
- TatRev/PolyA ([1]; participant 2027): 0.6894
- LLTR/TAR ([1]; participant 2147a): 0.08494
- PolyA/LLTR ([1]; participant 2147a): 0.5196
- TatRev/PolyA ([1]; participant 2147a): 0.8518
- PolyA/LLTR ([1]; participant 2161): 0.79
- TatRev/PolyA ([1]; participant 2161): 0.8634
- LLTR/TAR ([1]; participant 2256): 0.9386
- PolyA/LLTR ([1]; participant 2256): 0.8949
- LLTR/TAR ([1]; participant 2461): 1.332
- TatRev/PolyA ([1]; participant 2747): 0
- Cell viability (DMSO αCD3/28 = 100) (PBMCs; 5μM): 74.1 and 98.05 and 112.6 and 106 and 105.8
- IC50 [2, 3]: 1410 nM
- IC50 [2, 4]: 1130 nM
- MS Tat-Rev (dose-response) ([2]; dose 5 µM): 15.52 % of activated DMSO
- PolyA (dose-response) ([2]; dose 5 µM): 17.57 % of activated DMSO
- MS Tat-Rev (dose-response) ([2]; dose 10 µM): 14.99 % of activated DMSO
- PolyA (dose-response) ([2]; dose 10 µM): 19.46 % of activated DMSO

Molecule: pladienolide B
- LLTR HIV transcripts (DMSO αCD3/28 = 100) ([1]; 10nM, 6 days after αCD3/28 activation, each column one participant): 48.15 and 112.06 and 64.44 and 97.37 and 80.45 and 82.86
- Pol ([1]; participant 2027): 56.14
- PolyA ([1]; participant 2027): 45.13
- TAR ([1]; participant 2027): 270.3
- TatRev ([1]; participant 2027): 0
- LLTR/TAR ([1]; participant 2027): 0.3065
- PolyA/LLTR ([1]; participant 2027): 0.5447
- TatRev/PolyA ([1]; participant 2027): 0
- Pol ([1]; participant 2147a): 74.51
- PolyA ([1]; participant 2147a): 38.34
- TAR ([1]; participant 2147a): 177.4
- TatRev ([1]; participant 2147a): 22.95
- LLTR/TAR ([1]; participant 2147a): 0.2714
- PolyA/LLTR ([1]; participant 2147a): 0.7963
- TatRev/PolyA ([1]; participant 2147a): 0.342
- Pol ([1]; participant 2161): 44.19
- PolyA ([1]; participant 2161): 152.38
- TAR ([1]; participant 2161): 52.78
- TatRev ([1]; participant 2161): 381.82
- LLTR/TAR ([1]; participant 2161): 1.5241
- PolyA/LLTR ([1]; participant 2161): 1.89
- TatRev/PolyA ([1]; participant 2161): 2.506
- PolyA ([1]; participant 2461): 53.85
- TAR ([1]; participant 2461): 91.45
- LLTR/TAR ([1]; participant 2461): 1.065
- PolyA/LLTR ([1]; participant 2461): 0.553
- Pol ([1]; participant 2747): 21.03
- PolyA ([1]; participant 2747): 65.33
- TAR ([1]; participant 2747): 95.91
- TatRev ([1]; participant 2747): 0
- TatRev/PolyA ([1]; participant 2747): 0
- Pol ([1]; participant 2750): 212.24
- PolyA ([1]; participant 2750): 74.85
- TAR ([1]; participant 2750): 108.21
- TatRev ([1]; participant 2750): 155
- LLTR/TAR ([1]; participant 2750): 1.036
- PolyA/LLTR ([1]; participant 2750): 0.668
- TatRev/PolyA ([1]; participant 2750): 2.0707
- Cell viability (DMSO αCD3/28 = 100) (PBMCs; 10nM): 115.2 and 113.39 and 90.65 and 128.6 and 121.6 and 94.2 and 112.8
- MS Tat-Rev (dose-response) ([2]; dose 0.1 nM): 34.26 % of activated DMSO
- PolyA (dose-response) ([2]; dose 0.1 nM): 47.95 % of activated DMSO
- MS Tat-Rev (dose-response) ([2]; dose 1 nM): 17.07 % of activated DMSO
- PolyA (dose-response) ([2]; dose 1 nM): 43.55 % of activated DMSO
- MS Tat-Rev (dose-response) ([2]; dose 10 nM): 0.76 % of activated DMSO
- PolyA (dose-response) ([2]; dose 10 nM): 4 % of activated DMSO
- IC50 ([2]; reduction in PolyA HIV transcripts relative to activated DMSO, read-out: Completed (PolyA) IC50): 0.18 nM
- IC50 ([2]; reduction in TatRev HIV transcripts relative to activated DMSO, read-out: Multiply spliced (TatRev) IC50): 0.06 nM
